Reference: the CheMixHub ionic liquid set

Assay: xn = mol fraction of the nth substance listed
Conditions: 308.15 K, 101 kPa

CCCCCCCCCCCCCCCC[n+]1ccccc1.[Cl-] + NCC(=O)O + O
Conditions | electrical conductivity [S/m]
x2 = 0, x1 = 5.4e-07 | 0.000222
x2 = 0, x1 = 9e-07 | 0.00029
x2 = 0, x1 = 1.62e-06 | 0.0004
x2 = 0, x1 = 2.34e-06 | 0.000465
x2 = 0, x1 = 2.88e-06 | 0.000581
x2 = 0, x1 = 3.78e-06 | 0.000705
x2 = 0, x1 = 4.5e-06 | 0.000794
x2 = 0, x1 = 5.59e-06 | 0.000937
x2 = 0, x1 = 6.85e-06 | 0.00106
x2 = 0, x1 = 7.93e-06 | 0.001222
x2 = 0, x1 = 9.01e-06 | 0.001438
x2 = 0, x1 = 1.009e-05 | 0.00159
x2 = 0, x1 = 1.117e-05 | 0.001701
x2 = 0, x1 = 1.442e-05 | 0.00209
x2 = 0, x1 = 1.55e-05 | 0.00219
x2 = 0, x1 = 1.766e-05 | 0.00237
x2 = 0, x1 = 1.982e-05 | 0.00248
x2 = 0, x1 = 2.18e-05 | 0.00259
x2 = 0, x1 = 2.397e-05 | 0.00264
x2 = 0, x1 = 2.595e-05 | 0.00278
x2 = 0, x1 = 2.991e-05 | 0.00297
x2 = 0, x1 = 3.406e-05 | 0.00314
x2 = 0, x1 = 3.784e-05 | 0.00328
x2 = 0, x1 = 4.162e-05 | 0.00342
x2 = 0, x1 = 4.541e-05 | 0.00356
x2 = 0, x1 = 4.919e-05 | 0.00369
x2 = 0, x1 = 5.099e-05 | 0.00375
x2 = 0, x1 = 5.982e-05 | 0.00403
x2 = 0, x1 = 6.829e-05 | 0.00432
x2 = 0, x1 = 7.64e-05 | 0.00454
x2 = 0, x1 = 8.415e-05 | 0.00477
x2 = 0, x1 = 9.171e-05 | 0.00497
x2 = 0, x1 = 9.892e-05 | 0.00516
x2 = 0, x1 = 0.0001058 | 0.00533
x2 = 0, x1 = 0.0001124 | 0.0055
x2 = 0, x1 = 0.0001189 | 0.00565
x2 = 2.018e-05, x1 = 5.4e-07 | 0.0001
x2 = 2.018e-05, x1 = 9e-07 | 0.000245
x2 = 2.018e-05, x1 = 1.62e-06 | 0.000348
x2 = 2.018e-05, x1 = 2.34e-06 | 0.000456
x2 = 2.018e-05, x1 = 2.88e-06 | 0.000621
x2 = 2.018e-05, x1 = 3.78e-06 | 0.000716
x2 = 2.018e-05, x1 = 4.51e-06 | 0.000822
x2 = 2.018e-05, x1 = 5.59e-06 | 0.000964
x2 = 2.018e-05, x1 = 6.85e-06 | 0.00108
x2 = 2.018e-05, x1 = 7.93e-06 | 0.001203
x2 = 2.018e-05, x1 = 9.01e-06 | 0.001314
x2 = 2.018e-05, x1 = 1.009e-05 | 0.001427
x2 = 2.018e-05, x1 = 1.117e-05 | 0.001546
x2 = 2.018e-05, x1 = 1.334e-05 | 0.001813
x2 = 2.018e-05, x1 = 1.55e-05 | 0.00205
x2 = 2.018e-05, x1 = 1.766e-05 | 0.00226
x2 = 2.018e-05, x1 = 1.982e-05 | 0.0024
x2 = 2.018e-05, x1 = 2.181e-05 | 0.00252
x2 = 2.018e-05, x1 = 2.397e-05 | 0.00262
x2 = 2.018e-05, x1 = 2.595e-05 | 0.0027
x2 = 2.018e-05, x1 = 3.009e-05 | 0.00285
x2 = 2.018e-05, x1 = 3.406e-05 | 0.00306
x2 = 2.018e-05, x1 = 3.802e-05 | 0.00323
x2 = 2.018e-05, x1 = 4.181e-05 | 0.00336
x2 = 2.018e-05, x1 = 4.559e-05 | 0.0035
x2 = 2.018e-05, x1 = 4.92e-05 | 0.00362
x2 = 2.018e-05, x1 = 5.1e-05 | 0.00368
x2 = 2.018e-05, x1 = 6.001e-05 | 0.00392
x2 = 2.018e-05, x1 = 6.848e-05 | 0.00422
x2 = 2.018e-05, x1 = 7.658e-05 | 0.00445
x2 = 2.018e-05, x1 = 8.433e-05 | 0.00467
x2 = 2.018e-05, x1 = 9.19e-05 | 0.00486
x2 = 2.018e-05, x1 = 9.911e-05 | 0.00506
x2 = 2.018e-05, x1 = 0.000106 | 0.00523
x2 = 2.018e-05, x1 = 0.0001126 | 0.00538
x2 = 2.018e-05, x1 = 0.0001191 | 0.00553
x2 = 0.0002, x1 = 5.4e-07 | 0.000232
x2 = 0.0002, x1 = 9e-07 | 0.000298
x2 = 0.0002, x1 = 1.62e-06 | 0.00042
x2 = 0.0002, x1 = 2.16e-06 | 0.000524
x2 = 0.0002, x1 = 2.89e-06 | 0.000628
x2 = 0.0002, x1 = 3.79e-06 | 0.000685
x2 = 0.0002, x1 = 4.51e-06 | 0.000861
x2 = 0.0002, x1 = 5.59e-06 | 0.001036
x2 = 0.0002, x1 = 6.67e-06 | 0.00115
x2 = 0.0002, x1 = 7.75e-06 | 0.00127
x2 = 0.0002, x1 = 8.84e-06 | 0.001426
x2 = 0.0002, x1 = 9.92e-06 | 0.00157
x2 = 0.0002, x1 = 1.1e-05 | 0.00168
x2 = 0.0002, x1 = 1.316e-05 | 0.001913
x2 = 0.0002, x1 = 1.533e-05 | 0.00214
x2 = 0.0002, x1 = 1.731e-05 | 0.00228
x2 = 0.0002, x1 = 1.947e-05 | 0.00243
x2 = 0.0002, x1 = 2.146e-05 | 0.00253
x2 = 0.0002, x1 = 2.344e-05 | 0.00262
x2 = 0.0002, x1 = 2.56e-05 | 0.00272
x2 = 0.0002, x1 = 2.957e-05 | 0.00291
x2 = 0.0002, x1 = 3.336e-05 | 0.00307
x2 = 0.0002, x1 = 3.732e-05 | 0.00323
x2 = 0.0002, x1 = 4.111e-05 | 0.00337
x2 = 0.0002, x1 = 4.472e-05 | 0.0035
x2 = 0.0002, x1 = 4.832e-05 | 0.00363
x2 = 0.0002, x1 = 5.012e-05 | 0.0037
x2 = 0.0002, x1 = 5.878e-05 | 0.00399
